# Data published in patent US8927531B2, “Indanyloxydihydrobenzofuranylacetic acids” (Boehringer Ingelheim International GmbH, priority 2013, dated 2015).
# Molecular target: human GPR40 receptor (Homo sapiens, UniProt O14842)
# Assay: IP1 accumulation measurements using the IPOne assay system in 1321N1 cells stably expressing human GPR40 receptor
# Format: cell-based
# Conditions: stimulation 1 h at 37° C.
# Experimental: IP1 accumulation measurements using the IPOne assay system—1321N1 cells stably expressing human GPR40 receptor (Euroscreen, Belgium) are seeded 24 h before the assay in white 384-well plates in culture medium containing 10% FCS, 1% Na-Pyruvate and 400 μg/mL G418. IP1 is assayed according to the manufacturer's description (Cisbio Bioassays, France). In brief, the assay is started by substitution of the culture medium by stimulation buffer (Hepes 10 mM, CaCl2 1 mM, MgCl2 0.5 mM, KCl 4.2 mM, NaCl 146 mM, glucose 5.5 mM and LiCl 50 mM, pH 7.4). Cells are stimulated for 1 h at 37° C., 5% CO2 by addition of the compounds that are diluted in stimulation buffer containing LiCl. Assays are stopped by adding HTRF-conjugates (IP1-d2 and Anti-IP1 cryptate Tb) and lysis buffer, provided by the manufacturer. After an incubation time of 1 h at room temperature plates are measured using an EnVision™, Perkin Elmer. The obtained fluorescence ratios at 665/615 […] are then used to calculate the pEC50 values using Assay Explorer 3.3 Software (Accelrys, Inc.) by interpolation using an IP1 reference curve and subsequent sigmoidal curve fitting allowing for a variable hill slope.
# human GPR40 receptor, sequence (O14842 whole entry): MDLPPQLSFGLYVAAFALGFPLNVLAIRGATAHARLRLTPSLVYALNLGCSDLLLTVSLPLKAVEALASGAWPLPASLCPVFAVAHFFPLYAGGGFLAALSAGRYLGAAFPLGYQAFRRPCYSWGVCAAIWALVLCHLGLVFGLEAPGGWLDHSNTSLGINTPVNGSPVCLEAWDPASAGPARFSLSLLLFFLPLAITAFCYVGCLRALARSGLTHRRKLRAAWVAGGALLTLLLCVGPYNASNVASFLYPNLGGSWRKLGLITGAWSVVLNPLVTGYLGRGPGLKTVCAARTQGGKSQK
row,Compound,EC50
1,"O=C(O)C[C@@H]1COc2cc(O[C@@H]3CCc4c3ccc(C(F)(F)F)c4CN3CCc4ccccc4C3)ccc21 [Example 29, {(S)-6-[(R)-4-(3,4-Dihydro-isoquinolin-2-ylmethyl)-5-trifluoromethyl-indan-1-yloxy]-2,3-dihydro-benzofuran-3-yl}-acetic acid]",3 nM
2,"O=C(O)C[C@@H]1COc2cc(O[C@@H]3CCc4c3ccc(C(F)(F)F)c4CN3CCc4ncsc4C3)ccc21 [Example 30, {(S)-6-[(R)-4-(6,7-Dihydro-thiazolo[5,4-c]pyridin-5-ylmethyl)-5-trifluoromethyl-indan-1-yloxy]-2,3-dihydro-benzofuran-3-yl}-acetic acid]",3 nM
3,"Cn1cc2c(n1)CCN(Cc1c(C(F)(F)F)ccc3c1CC[C@H]3Oc1ccc3c(c1)OC[C@H]3CC(=O)O)C2 [Example 31, {(S)-6-[(R)-4-(2-Methyl-2,4,6,7-tetrahydro-pyrazolo[4,3-c]pyridin-5-ylmethyl)-5-trifluoromethyl-indan-1-yloxy]-2,3-dihydro-benzofuran-3-yl}-acetic acid]",2 nM
4,"O=C(O)C[C@@H]1COc2cc(O[C@@H]3CCc4c3ccc(C(F)(F)F)c4CN3CCc4ccsc4C3)ccc21 [Example 32, {(S)-6-[(R)-4-(4,7-Dihydro-thieno[2,3-c]pyridin-6-ylmethyl)-5-trifluoromethyl-indan-1-yloxy]-2,3-dihydro-benzofuran-3-yl}-acetic acid]",2 nM
5,"O=C(O)C[C@@H]1COc2cc(O[C@@H]3CCc4c3ccc(C(F)(F)F)c4CN3CCn4nccc4C3)ccc21 [Example 33, {(S)-6-[(R)-4-(6,7-Dihydro-pyrazolo[1,5-a]pyrazin-5-ylmethyl)-5-trifluoromethyl-indan-1-yloxy]-2,3-dihydro-benzofuran-3-yl}-acetic acid]",2 nM
6,"O=C(O)C[C@@H]1COc2cc(O[C@@H]3CCc4c3ccc(C(F)(F)F)c4CN3CCc4nocc4C3)ccc21 [Example 34, {(S)-6-[(R)-4-(6,7-Dihydro-isoxazolo[4,3-c]pyridin-5-ylmethyl)-5-trifluoromethyl-indan-1-yloxy]-2,3-dihydro-benzofuran-3-yl}-acetic acid]",3 nM
7,"Cc1nc2c(o1)CCN(Cc1c(C(F)(F)F)ccc3c1CC[C@H]3Oc1ccc3c(c1)OC[C@H]3CC(=O)O)C2 [Example 35, {(S)-6-[(R)-4-(2-Methyl-6,7-dihydro-oxazolo[4,5-c]pyridin-5-ylmethyl)-5-trifluoromethyl-indan-1-yloxy]-2,3-dihydro-benzofuran-3-yl}-acetic acid]",3 nM
